Data taken from ChEMBL document CHEMBL5131486, “Design, synthesis, biological evaluation and molecular modeling of N-isobutyl-N-((2-(p-tolyloxymethyl)thiazol-4yl)methyl)benzo[d][1,3] dioxole-5-carboxamides as selective butyrylcholinesterase inhibitors” (Bioorg Med Chem Lett, 2022).
Active and inactive are the calls of the source. The calls are words filed in the database; no cut-off is given here.

Legend:
Cholinesterase [1] = biological target: T1, Cholinesterase (Homo sapiens, UniProt P06276); test: Inhibition of BuchE (unknown origin) at 10 uM relative to control
Acetylcholinesterase [2] = biological target: T2, Acetylcholinesterase (Homo sapiens, UniProt P22303); test: Inhibition of AChE (unknown origin) at 10 uM relative to control
Cholinesterase [3] = biological target: T1, Cholinesterase; test: Inhibition of BuchE (unknown origin)
Acetylcholinesterase [4] = biological target: T2, Acetylcholinesterase; test: Inhibition of AChE (unknown origin)
SH-SY5Y [5] = test: Cytotoxicity against human SH-SY5Y cells assessed as reduction in cell viability at 50 uM incubated for 24 hrs by MTT assay relative to control; type: toxicity, cell-based
Cholinesterase [6] = biological target: T1, Cholinesterase; test: Competitive inhibition of BuChE (unknown origin) assessed as increase in Km with constant Vmax at 0 to 400 nM using varying concentrations of substrate by Lineweaver-Burk plot analysis; conditions: dose 0-400 nM
HepG2 [7] = test: Cytotoxicity against human HepG2 cells assessed as reduction in cell viability at 50 uM incubated for 24 hrs by MTT assay relative to control; type: toxicity, cell-based; conditions: hepg2, 24 h
[8] = Permeability of compound by PAMPA-BBB assay; type: ADME; conditions: read-out: permeability
HepG2 [9] = test: Cytotoxicity against human HepG2 cells assessed as reduction in cell viability at <20 uM incubated for 24 hrs by MTT assay; type: toxicity, cell-based; conditions: hepg2, 24 h
SH-SY5Y [10] = test: Cytotoxicity against human SH-SY5Y cells assessed as reduction in cell viability at <20 uM incubated for 24 hrs by MTT assay; type: toxicity, cell-based

T2 sequence (P22303 whole entry): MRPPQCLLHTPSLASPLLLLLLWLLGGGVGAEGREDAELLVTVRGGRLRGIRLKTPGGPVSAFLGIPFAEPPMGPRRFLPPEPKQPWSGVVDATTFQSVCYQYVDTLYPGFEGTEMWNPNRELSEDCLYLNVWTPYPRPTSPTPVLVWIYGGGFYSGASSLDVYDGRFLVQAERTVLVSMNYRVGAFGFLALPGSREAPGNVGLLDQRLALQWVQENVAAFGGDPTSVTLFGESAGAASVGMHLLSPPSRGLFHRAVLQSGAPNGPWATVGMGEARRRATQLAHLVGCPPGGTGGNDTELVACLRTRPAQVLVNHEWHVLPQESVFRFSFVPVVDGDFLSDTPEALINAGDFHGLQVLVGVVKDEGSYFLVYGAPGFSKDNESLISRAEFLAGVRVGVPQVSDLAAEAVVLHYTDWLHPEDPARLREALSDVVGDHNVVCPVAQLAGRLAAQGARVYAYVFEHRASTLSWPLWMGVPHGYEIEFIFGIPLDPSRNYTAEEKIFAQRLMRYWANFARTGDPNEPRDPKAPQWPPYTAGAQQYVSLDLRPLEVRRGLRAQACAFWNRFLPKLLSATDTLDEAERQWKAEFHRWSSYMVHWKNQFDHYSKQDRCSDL
T1 sequence (P06276 whole entry): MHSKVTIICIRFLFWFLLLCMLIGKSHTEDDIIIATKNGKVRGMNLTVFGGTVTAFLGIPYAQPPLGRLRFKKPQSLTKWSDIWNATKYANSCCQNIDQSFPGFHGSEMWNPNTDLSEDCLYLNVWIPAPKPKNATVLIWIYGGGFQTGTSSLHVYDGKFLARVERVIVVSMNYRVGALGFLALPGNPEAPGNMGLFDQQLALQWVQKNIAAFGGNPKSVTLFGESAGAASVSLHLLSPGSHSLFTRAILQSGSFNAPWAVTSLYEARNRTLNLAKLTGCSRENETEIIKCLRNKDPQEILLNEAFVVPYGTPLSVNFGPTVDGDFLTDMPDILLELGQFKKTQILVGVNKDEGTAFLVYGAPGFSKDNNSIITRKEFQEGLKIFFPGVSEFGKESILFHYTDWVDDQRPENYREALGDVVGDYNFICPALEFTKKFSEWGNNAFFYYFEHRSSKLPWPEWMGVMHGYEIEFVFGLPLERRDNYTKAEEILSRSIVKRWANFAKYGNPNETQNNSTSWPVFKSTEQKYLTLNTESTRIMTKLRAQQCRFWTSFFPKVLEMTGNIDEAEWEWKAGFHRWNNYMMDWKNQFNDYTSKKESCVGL

Compound	inhibition (Cholinesterase [1])	inhibition (Acetylcholinesterase [2])	IC50 (Cholinesterase [3])	further results
Cc1ccc(OCc2nc(CN(CC(C)C)C(=O)S(=O)(=O)c3ccccc3)cs2)cc1	32.9%	12%	–	–
Cc1ccc(OCc2nc(CN(CC(C)C)C(=O)c3ccccc3F)cs2)cc1	86.6%	–	1390 nM	–
COCc1nc(CN(CC(C)C)C(=O)c2ccc3c(c2)OCO3)cs1	15.3%	4.72%	–	–
Cc1ccc(OCc2nc(CN(CC(C)C)C(=O)c3cccc(C)c3)cs2)cc1	94.1%	-5.65%	1170 nM	–
Cc1ccc(OCc2nc(CN(CC(C)C)C(=O)c3ccccc3Cl)cs2)cc1	72.4%	–	3940 nM	–
CCC(=O)N(Cc1csc(COc2ccc(C)cc2)n1)CC(C)C	55.3%	-2.4%	8080 nM	–
CC(C)CN(Cc1csc(COc2ccc(F)cc2)n1)C(=O)S(=O)(=O)c1ccccc1	55.1%	9.12%	8190 nM	–
CC(C)CN(Cc1csc(COc2ccc(Cl)cc2)n1)C(=O)c1ccc2c(c1)OCO2	91.2%	-9.46%	240 nM	–
Cc1ccc(OCc2nc(CN(CC(C)C)C(=O)c3ccccc3C)cs2)cc1	75.2%	–	4100 nM	–
Cc1ccc(OCc2nc(CN(CC(C)C)C(=O)c3ccccc3)cs2)cc1	92%	0.25%	1150 nM	–
CC(=O)N(Cc1csc(COc2ccc(C)cc2)n1)CC(C)C	64.8%	19.9%	6010 nM	–
Cc1ccc(OCc2nc(CN(CC(C)C)C(=O)c3ccc(F)cc3)cs2)cc1	82.2%	–	2210 nM	–
COc1ccccc1C(=O)N(Cc1csc(COc2ccc(C)cc2)n1)CC(C)C	26%	2.25%	–	–
COc1ccc(C(=O)N(Cc2csc(COc3ccc(C)cc3)n2)CC(C)C)cc1	32.8%	4.91%	–	–
COc1ccc(OCc2nc(CN(CC(C)C)C(=O)c3ccc4c(c3)OCO4)cs2)cc1	77.8%	-5.49%	1800 nM	–
CCCCCC(=O)N(Cc1csc(COc2ccc(C)cc2)n1)CC(C)C	86.1%	2.55%	1990 nM	–
Cc1ccc(S(=O)(=O)C(=O)N(Cc2csc(COc3ccc(F)cc3)n2)CC(C)C)cc1	64.4%	14.3%	6850 nM	–
Cc1ccc(OCc2nc(CN(CC(C)C)C(=O)c3ccc4c(c3)OCO4)cs2)cc1	87.2%	1.76%	1280 nM	–
Cc1ccc(OCc2nc(CN(CC(C)C)C(=O)S(=O)(=O)c3cccnc3)cs2)cc1	48.3%	16.5%	–	–

Compound	inhibition (Cholinesterase [1])	inhibition (Acetylcholinesterase [2])	IC50 (Cholinesterase [3])	further results
Cc1ccc(OCc2nc(CN(CC(C)C)C(=O)c3ccc(C)cc3)cs2)cc1	92.6%	–	1050 nM	–
COc1cccc(C(=O)N(Cc2csc(COc3ccc(C)cc3)n2)CC(C)C)c1	91.4%	1.46%	970 nM	–
Cc1ccc(OCc2nc(CN(CC(C)C)C(=O)c3cccc(Cl)c3)cs2)cc1	97%	-3.62%	860 nM	–
Cc1ccc(OCc2nc(CN(CC(C)C)C(=O)c3cccc(F)c3)cs2)cc1	78.2%	0.51%	2430 nM	–
Cc1ccc(OCc2nc(CN(CC(C)C)C(=O)c3ccco3)cs2)cc1	87.8%	1.61%	1670 nM	–
CN1c2ccccc2C(NCCCCCCC(=O)CCCCNc2c3c(nc4ccccc24)CCCC3)c2ccc(Cl)cc2S1(=O)=O (centres undefined)	–	–	4 nM	IC50 (Acetylcholinesterase [4]): 160 nM
CNC(=O)Oc1ccc2c(c1)[C@]1(C)CCN(C)[C@]1(C)N2C	–	–	16 nM	–
Cc1ccc(OCc2nc(CN(CC(C)C)C(=O)S(=O)(=O)c3ccc4ccccc4c3)cs2)cc1	36.5%	18.7%	–	–
CC(C)CN(Cc1csc(COc2ccc(F)cc2)n1)C(=O)c1ccc2c(c1)OCO2	96.4%	-9.02%	130 nM	Activity (SH-SY5Y [5]): < 40%; inhibition (Cholinesterase [6]): Active; Activity (HepG2 [7]): < 40%; Papp [8]: 4.97 ×10⁻⁶ cm/s; Activity (HepG2 [9]): Non-Toxic; Activity (SH-SY5Y [10]): Non-Toxic
CCCC(=O)N(Cc1csc(COc2ccc(C)cc2)n1)CC(C)C	66%	21.2%	4570 nM	–
Cc1ccc(OCc2nc(CN(CC(C)C)C(=O)S(=O)(=O)c3ccc(C)cc3)cs2)cc1	38.4%	10.1%	–	–
CN(Cc1csc(COc2ccc(F)cc2)n1)C(=O)c1ccc2c(c1)OCO2	31.9%	12.8%	–	–
Cc1ccc(OCc2nc(CN(CC(C)C)C(=O)c3ccc(Cl)cc3)cs2)cc1	65.5%	-6.51%	2230 nM	–
CC(=O)[C@H]1CC[C@H]2[C@@H]3CCC4=CC(=O)CC[C@]4(C)[C@H]3CC[C@]12C [PROGESTERONE]	–	–	–	Papp [8]: 8.9 ×10⁻⁶ cm/s
Nc1c2c(nc3ccccc13)CCCC2	0.07%	–	–	–
CC(C)CN(Cc1csc(COc2ccc(C(F)(F)F)cc2)n1)C(=O)c1ccc2c(c1)OCO2	65.9%	1.71%	5230 nM	–
CC(C)CN(Cc1csc(COc2ccc(F)cc2)n1)C(=O)S(=O)(=O)c1ccc2ccccc2c1	40.7%	20.9%	–	–
Cc1ccc(OCc2nc(CN(CC(C)C)C(=O)c3c(F)cccc3F)cs2)cc1	66.4%	0.18%	4890 nM	–
Cc1ccc(OCc2nc(CN(CC(C)C)C(=O)c3cccs3)cs2)cc1	82%	-0.31%	2300 nM	–
